# Experimental data as given in ChEMBL document CHEMBL3885881, “DrugMatrix”.
# Species on record: Rattus norvegicus
# Experiment: DrugMatrix - Regimen: Daily Repeat
# Assay type: toxicity, organism-based, Sprague-Dawley
# Set-up: regimen Daily Repeat, gender Male, age 6-8 weeks
# Details: in vivo, po, route oral GAVAGE, vehicle .5 % CMC; for BASOPHIL / EOSINOPHIL / ERYTHROCYTE COUNT / HEMATOCRIT / HEMOGLOBIN / LEUKOCYTE COUNT / LYMPHOCYTE / MEAN CORPUSCULAR HEMOGLOBIN / MEAN CORPUSCULAR HEMOGLOBIN CONCENTRATION / MEAN CORPUSCULAR VOLUME / MONOCYTE / NEUTROPHIL / PLATELET COUNT: tissue Blood; for ALANINE AMINOTRANSFERASE / ALKALINE PHOSPHATASE / ASPARTATE AMINOTRANSFERASE / BLOOD UREA NITROGEN / CHLORIDE / CHOLESTEROL / CREATINE PHOSPHOKINASE / CREATININE / GLUCOSE / PHOSPHORUS / POTASSIUM / SODIUM / TOTAL BILIRUBIN / TOTAL PROTEIN: tissue Plasma
# [1] = 0 mg/kg, 72 h, dose level Control, time 3 day
# [2] = 0 mg/kg, 120 h, dose level Control, time 5 day
# [3] = 20 mg/kg, 72 h, dose level Low, time 3 day
# [4] = 20 mg/kg, 120 h, dose level Low, time 5 day
# [5] = 95 mg/kg, 72 h, dose level High, time 3 day
# [6] = 95 mg/kg, 120 h, dose level High, time 5 day
smiles,measurement,setting,value
CN1CCN(C2=Nc3cc(Cl)ccc3Nc3ccccc32)CC1 [CLOZAPINE],BASOPHIL,[1],0%
same,EOSINOPHIL,[1],0.33%
same,ERYTHROCYTE COUNT,[1],6.2 x10E6/uL
same,HEMATOCRIT,[1],38.08%
same,HEMOGLOBIN,[1],14.92 G/DL
same,LEUKOCYTE COUNT,[1],11.13 x10E3/uL
same,LYMPHOCYTE,[1],76%
same,MEAN CORPUSCULAR HEMOGLOBIN,[1],24.1 pg
same,MEAN CORPUSCULAR HEMOGLOBIN CONCENTRATION,[1],39.17 G/DL
same,MEAN CORPUSCULAR VOLUME,[1],61.48 fL
same,MONOCYTE,[1],3.83%
same,NEUTROPHIL,[1],19.83%
same,PLATELET COUNT,[1],1327.5 x10E3/uL
same,ALANINE AMINOTRANSFERASE,[1],40.17 u/L
same,ALKALINE PHOSPHATASE,[1],372 u/L
same,ASPARTATE AMINOTRANSFERASE,[1],67.17 u/L
same,BLOOD UREA NITROGEN,[1],18.83 mg/dL
same,CHLORIDE,[1],105.17 MEQ/L
same,CHOLESTEROL,[1],78.17 mg/dL
same,CREATINE PHOSPHOKINASE,[1],149.17 u/L
same,CREATININE,[1],0.57 mg/dL
same,GLUCOSE,[1],185.17 mg/dL
same,PHOSPHORUS,[1],11.43 mg/dL
same,POTASSIUM,[1],6.78 MEQ/L
same,SODIUM,[1],152.83 MEQ/L
same,TOTAL BILIRUBIN,[1],0.4 mg/dL
same,TOTAL PROTEIN,[1],6.87 G/DL
same,BASOPHIL,[2],0%
same,EOSINOPHIL,[2],0%
same,ERYTHROCYTE COUNT,[2],6.05 x10E6/uL
same,HEMATOCRIT,[2],36.55%
same,HEMOGLOBIN,[2],14.7 G/DL
same,LEUKOCYTE COUNT,[2],11.8 x10E3/uL
same,LYMPHOCYTE,[2],86.83%
same,MEAN CORPUSCULAR HEMOGLOBIN,[2],24.37 pg
same,MEAN CORPUSCULAR HEMOGLOBIN CONCENTRATION,[2],40.32 G/DL
same,MEAN CORPUSCULAR VOLUME,[2],60.47 fL
same,MONOCYTE,[2],0.83%
same,NEUTROPHIL,[2],12.33%
same,PLATELET COUNT,[2],1177 x10E3/uL
same,ALANINE AMINOTRANSFERASE,[2],41.83 u/L
same,ALKALINE PHOSPHATASE,[2],377.5 u/L
same,ASPARTATE AMINOTRANSFERASE,[2],60.83 u/L
same,BLOOD UREA NITROGEN,[2],16 mg/dL
same,CHLORIDE,[2],105.67 MEQ/L
same,CHOLESTEROL,[2],67.83 mg/dL
same,CREATINE PHOSPHOKINASE,[2],120.33 u/L
same,CREATININE,[2],0.6 mg/dL
same,GLUCOSE,[2],167.67 mg/dL
same,PHOSPHORUS,[2],10.03 mg/dL
same,POTASSIUM,[2],6.68 MEQ/L
same,SODIUM,[2],150.5 MEQ/L
same,TOTAL BILIRUBIN,[2],0.57 mg/dL
same,TOTAL PROTEIN,[2],6.25 G/DL
same,BASOPHIL,[3],0%
same,EOSINOPHIL,[3],0.5%
same,ERYTHROCYTE COUNT,[3],5.3 x10E6/uL
same,HEMATOCRIT,[3],33.4%
same,HEMOGLOBIN,[3],12.8 G/DL
same,LEUKOCYTE COUNT,[3],10.25 x10E3/uL
same,LYMPHOCYTE,[3],83.5%
same,MEAN CORPUSCULAR HEMOGLOBIN,[3],24.2 pg
same,MEAN CORPUSCULAR HEMOGLOBIN CONCENTRATION,[3],38.35 G/DL
same,MEAN CORPUSCULAR VOLUME,[3],62.95 fL
same,MONOCYTE,[3],0%
same,NEUTROPHIL,[3],16%
same,PLATELET COUNT,[3],1071.5 x10E3/uL
same,ALANINE AMINOTRANSFERASE,[3],33.33 u/L
same,ALKALINE PHOSPHATASE,[3],312 u/L
same,ASPARTATE AMINOTRANSFERASE,[3],54 u/L
same,BLOOD UREA NITROGEN,[3],13.33 mg/dL
same,CHLORIDE,[3],104.33 MEQ/L
same,CHOLESTEROL,[3],84.67 mg/dL
same,CREATINE PHOSPHOKINASE,[3],145.33 u/L
same,CREATININE,[3],0.57 mg/dL
same,GLUCOSE,[3],148.67 mg/dL
same,PHOSPHORUS,[3],11.43 mg/dL
same,POTASSIUM,[3],6.5 MEQ/L
same,SODIUM,[3],149 MEQ/L
same,TOTAL BILIRUBIN,[3],0.3 mg/dL
same,TOTAL PROTEIN,[3],5.9 G/DL
same,BASOPHIL,[4],0%
same,EOSINOPHIL,[4],0%
same,ERYTHROCYTE COUNT,[4],6.24 x10E6/uL
same,HEMATOCRIT,[4],37.73%
same,HEMOGLOBIN,[4],14.93 G/DL
same,LEUKOCYTE COUNT,[4],15.97 x10E3/uL
same,LYMPHOCYTE,[4],93.67%
same,MEAN CORPUSCULAR HEMOGLOBIN,[4],23.97 pg
same,MEAN CORPUSCULAR HEMOGLOBIN CONCENTRATION,[4],39.57 G/DL
same,MEAN CORPUSCULAR VOLUME,[4],60.57 fL
same,MONOCYTE,[4],1.33%
same,NEUTROPHIL,[4],5%
same,PLATELET COUNT,[4],1152.67 x10E3/uL
same,ALANINE AMINOTRANSFERASE,[4],36.67 u/L
same,ALKALINE PHOSPHATASE,[4],370 u/L
same,ASPARTATE AMINOTRANSFERASE,[4],55.67 u/L
same,BLOOD UREA NITROGEN,[4],13 mg/dL
same,CHLORIDE,[4],106 MEQ/L
same,CHOLESTEROL,[4],72.33 mg/dL
same,CREATINE PHOSPHOKINASE,[4],147.67 u/L
same,CREATININE,[4],0.57 mg/dL
same,GLUCOSE,[4],152.33 mg/dL
same,PHOSPHORUS,[4],11.4 mg/dL
same,POTASSIUM,[4],6.5 MEQ/L
same,SODIUM,[4],149 MEQ/L
same,TOTAL BILIRUBIN,[4],0.3 mg/dL
same,TOTAL PROTEIN,[4],5.87 G/DL
same,BASOPHIL,[5],0%
same,EOSINOPHIL,[5],0.33%
same,ERYTHROCYTE COUNT,[5],6.22 x10E6/uL
same,HEMATOCRIT,[5],37.83%
same,HEMOGLOBIN,[5],14.53 G/DL
same,LEUKOCYTE COUNT,[5],10.53 x10E3/uL
same,LYMPHOCYTE,[5],81.33%
same,MEAN CORPUSCULAR HEMOGLOBIN,[5],23.4 pg
same,MEAN CORPUSCULAR HEMOGLOBIN CONCENTRATION,[5],38.43 G/DL
same,MEAN CORPUSCULAR VOLUME,[5],60.87 fL
same,MONOCYTE,[5],1%
same,NEUTROPHIL,[5],17.33%
same,PLATELET COUNT,[5],1046 x10E3/uL
same,ALANINE AMINOTRANSFERASE,[5],43.67 u/L
same,ALKALINE PHOSPHATASE,[5],361.33 u/L
same,ASPARTATE AMINOTRANSFERASE,[5],61.67 u/L
same,BLOOD UREA NITROGEN,[5],16.33 mg/dL
same,CHLORIDE,[5],108 MEQ/L
same,CHOLESTEROL,[5],85.33 mg/dL
same,CREATINE PHOSPHOKINASE,[5],131.33 u/L
same,CREATININE,[5],0.57 mg/dL
same,GLUCOSE,[5],153.33 mg/dL
same,PHOSPHORUS,[5],11.9 mg/dL
same,POTASSIUM,[5],7.33 MEQ/L
same,SODIUM,[5],154.33 MEQ/L
same,TOTAL BILIRUBIN,[5],0.27 mg/dL
same,TOTAL PROTEIN,[5],6.13 G/DL
same,BASOPHIL,[6],0%
same,EOSINOPHIL,[6],0.67%
same,ERYTHROCYTE COUNT,[6],6.78 x10E6/uL
same,HEMATOCRIT,[6],41.33%
same,HEMOGLOBIN,[6],16.27 G/DL
same,LEUKOCYTE COUNT,[6],12.7 x10E3/uL
same,LYMPHOCYTE,[6],89.67%
same,MEAN CORPUSCULAR HEMOGLOBIN,[6],24.13 pg
same,MEAN CORPUSCULAR HEMOGLOBIN CONCENTRATION,[6],39.43 G/DL
same,MEAN CORPUSCULAR VOLUME,[6],61.1 fL
same,MONOCYTE,[6],0.33%
same,NEUTROPHIL,[6],9.33%
same,PLATELET COUNT,[6],1299 x10E3/uL
same,ALANINE AMINOTRANSFERASE,[6],60.33 u/L
same,ALKALINE PHOSPHATASE,[6],306.67 u/L
same,ASPARTATE AMINOTRANSFERASE,[6],59.67 u/L
same,BLOOD UREA NITROGEN,[6],14.67 mg/dL
same,CHLORIDE,[6],107 MEQ/L
same,CHOLESTEROL,[6],96.67 mg/dL
same,CREATINE PHOSPHOKINASE,[6],136 u/L
same,CREATININE,[6],0.5 mg/dL
same,GLUCOSE,[6],158 mg/dL
same,PHOSPHORUS,[6],11.83 mg/dL
same,POTASSIUM,[6],6.7 MEQ/L
same,SODIUM,[6],155.67 MEQ/L
same,TOTAL BILIRUBIN,[6],0.2 mg/dL
same,TOTAL PROTEIN,[6],6.6 G/DL
